Each block holds one molecule with its values, some of them ahead of it.
Key:
[1] = tested on: p21 induction in HCT 116 cells; experiment: p21 induction in cells (In-Cell Western, p21/GAPDH ratio); type: cell-based; conditions: Homo sapiens, HCT-116, 24 h, 24 h compound incubation, read-out: P21_EC50
How it was run: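 p21 and GAPDH signals quantified by In-Cell Western after 24 h compound exposure of HCT 116 cells (11 concentrations, 2-fold steps, usual top 10 μM). Percent activation from p21/GAPDH ratio relative to DMSO (low) and internal WRN inhibitor (high) controls; curve fit gave EC50.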

[2] = biological target: T1, human Werner helicase (WRN, Uniprot Q14191, amino acids 517-1235 with L1074F point mutation; WRN-BV08) (Homo sapiens, UniProt Q14191, L1074F); experiment: WRN (BV08) ADP-Glo assay; type: biochemical; conditions: WRN-BV08 (aa 517-1235, L1074F); read-out: ADP-Glo_hWRN_IC50
T1 construct: Uniprot Q14191, amino acids 517-1235 with L1074F point mutation; 8xHis (C, cleaved yes); TEV cleavage site (ENLYFQG) (C, cleaved yes); made in house; host or cells: Sf9 insect cells (baculovirus, pFastBac)
How it was run: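 ADP formed by untagged WRN helicase fragment (aa 517-1235, L1074F; 0.15 nM final) on 0.1 nM DNA duplex with […], 60 min at 25 °C after 15 min compound preincubation, pH 7.5 Bicine buffer. Luminescent ADP-Glo readout; IC50 from 4-parameter fit of % inhibition.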

T1 sequence (Q14191 with tags, fused parts or gaps L1074F): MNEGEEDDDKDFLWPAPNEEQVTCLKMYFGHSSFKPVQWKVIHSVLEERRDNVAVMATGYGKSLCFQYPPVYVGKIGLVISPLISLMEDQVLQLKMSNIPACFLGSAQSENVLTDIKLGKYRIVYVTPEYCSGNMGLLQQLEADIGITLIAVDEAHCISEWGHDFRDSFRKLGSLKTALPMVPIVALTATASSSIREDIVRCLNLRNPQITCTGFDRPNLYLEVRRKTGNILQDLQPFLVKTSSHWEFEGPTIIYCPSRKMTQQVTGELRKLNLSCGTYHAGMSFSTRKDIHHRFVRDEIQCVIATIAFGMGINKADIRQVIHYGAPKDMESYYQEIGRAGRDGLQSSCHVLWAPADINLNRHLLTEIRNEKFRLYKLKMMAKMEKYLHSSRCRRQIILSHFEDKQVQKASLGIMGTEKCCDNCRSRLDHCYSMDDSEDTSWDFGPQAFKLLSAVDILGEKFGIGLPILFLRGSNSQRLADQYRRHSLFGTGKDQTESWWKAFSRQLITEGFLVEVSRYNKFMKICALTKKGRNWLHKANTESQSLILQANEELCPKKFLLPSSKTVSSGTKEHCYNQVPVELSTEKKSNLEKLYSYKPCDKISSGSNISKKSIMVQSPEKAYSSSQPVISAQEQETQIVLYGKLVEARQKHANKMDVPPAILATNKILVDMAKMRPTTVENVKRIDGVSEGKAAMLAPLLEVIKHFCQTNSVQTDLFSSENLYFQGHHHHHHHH

Structure (SMILES): CCc1c(N2CCN(C(=O)c3c(O)ccc4ncoc34)CC2)c(=O)n2ncnc2n1CC(=O)NC12CC(C3CCC3)(C1)C2 [I-243, N-(3-cyclobutylbicyclo[1.1.1]pentan-1-yl)-2-(5-ethyl-6-(4-(6-hydroxybenzo[d]oxazole-7-carbonyl)piperazin-1-yl)-7-oxo-[1,2,4]triazolo[1,5-a]pyrimidin-4(7H)-yl)acetamide]
EC50 [1]: > 5000 nM
IC50 [2]: 100 to 500 nM

Structure (SMILES): CCc1c(N2CCN(C(=O)c3cnn(C)c3)CC2)c(=O)n2nc(-c3ccnc(OC)c3)nc2n1CC(=O)NC1Cc2ccc(F)cc2C1 (stereo not drawn) [I-246, 2-(5-ethyl-2-(2-methoxypyridin-4-yl)-6-(4-(1-methyl-1H-pyrazole-4-carbonyl)piperazin-1-yl)-7-oxo-[1,2,4]triazolo[1,5-a]pyrimidin-4(7H)-yl)-N-(5-fluoro-2,3-dihydro-1H-inden-2-yl)acetamide]
EC50 [1]: > 5000 nM
IC50 [2]: 100 to 500 nM

Structure (SMILES): CCc1c(N2CCN(C(=O)c3cnn(C)c3)CC2)c(=O)n2nc(-c3ccnc(OC)c3)nc2n1CC(=O)NC1CC2(C1)CC2F (stereo not drawn) [I-247, 2-(5-ethyl-2-(2-methoxypyridin-4-yl)-6-(4-(1-methyl-1H-pyrazole-4-carbonyl)piperazin-1-yl)-7-oxo-[1,2,4]triazolo[1,5-a]pyrimidin-4(7H)-yl)-N-(1-fluorospiro[2.3]hexan-5-yl)acetamide]
EC50 [1]: > 5000 nM
IC50 [2]: 100 to 500 nM

Structure (SMILES): CCc1c(N2CCN(C(=O)c3cnn(C)c3)CC2)c(=O)n2nc(C3=CCOCC3)nc2n1CC(=O)NC1Cc2ccc(F)cc2C1 (stereo not drawn) [I-248, 2-(2-(3,6-dihydro-2H-pyran-4-yl)-5-ethyl-6-(4-(1-methyl-1H-pyrazole-4-carbonyl)piperazin-1-yl)-7-oxo-[1,2,4]triazolo[1,5-a]pyrimidin-4(7H)-yl)-N-(5-fluoro-2,3-dihydro-1H-inden-2-yl)acetamide]
EC50 [1]: > 5000 nM
IC50 [2]: 100 to 500 nM

Structure (SMILES): CCc1c(N2CCN(C(=O)c3cnn(C)c3)CC2)c(=O)n2nc(C3=CCOCC3)nc2n1CC(=O)NC1CC2(C1)CC2F (stereo not drawn) [I-249, 2-(2-(3,6-dihydro-2H-pyran-4-yl)-5-ethyl-6-(4-(1-methyl-1H-pyrazole-4-carbonyl)piperazin-1-yl)-7-oxo-[1,2,4]triazolo[1,5-a]pyrimidin-4(7H)-yl)-N-(1-fluorospiro[2.3]hexan-5-yl)acetamide]
EC50 [1]: > 5000 nM
IC50 [2]: 100 to 500 nM

Structure (SMILES): CCc1c(N2CCN(C(=O)c3cnn(C)c3)CC2)c(=O)n2nc(-c3ccnc(OC)c3)nc2n1CC(=O)NC1(C(O)c2ccccc2)CC1 (stereo not drawn) [I-250, 2-(5-ethyl-2-(2-methoxypyridin-4-yl)-6-(4-(1-methyl-1H-pyrazole-4-carbonyl)piperazin-1-yl)-7-oxo-[1,2,4]triazolo[1,5-a]pyrimidin-4(7H)-yl)-N-(1-(hydroxy(phenyl)methyl)cyclopropyl)acetamide]
EC50 [1]: > 5000 nM
IC50 [2]: 100 to 500 nM

Now from value to molecule:

EC50 [1]: > 5000 nM
IC50 [2]: 50 to 100 nM
Structure (SMILES): CCc1c(N2CCN(C(=O)c3ncnc(C)c3O)[C@H]3CC[C@@H]32)c(=O)c2nc(N(C)C)cnc2n1CC(=O)NC1CC2(CC(C)C2)C1 (stereo partly drawn) [I-238, 2-(2-(dimethylamino)-6-ethyl-7-((1S,6S)-5-(5-hydroxy-6-methylpyrimidine-4-carbonyl)-2,5-diazabicyclo[4.2.0]octan-2-yl)-8-oxopyrido[2,3-b]pyrazin-5(8H)-yl)-N-(6-methylspiro[3.3]heptan-2-yl)acetamide]

EC50 [1]: > 5000 nM
IC50 [2]: 50 to 100 nM
Structure (SMILES): CCc1c(N2CCN(C(=O)c3c(O)ccnc3OC)CC2)c(=O)n2nc(C3=CCOCC3)nc2n1CC(=O)NC12CC(C(F)(F)F)(C1)C2 [I-239, 2-(2-(3,6-dihydro-2H-pyran-4-yl)-5-ethyl-6-(4-(4-hydroxy-2-methoxynicotinoyl)piperazin-1-yl)-7-oxo-[1,2,4]triazolo[1,5-a]pyrimidin-4(7H)-yl)-N-(3-(trifluoromethyl)bicyclo[1.1.1]pentan-1-yl)acetamide]

EC50 [1]: > 5000 nM
IC50 [2]: 50 to 100 nM
Structure (SMILES): CCc1c(N2CCN(C(=O)c3c(OC)ncc(C)c3O)CC2)c(=O)c2nc(N(C)C)cnc2n1CC(=O)NC12CC(C(F)(F)F)(C1)C2 [I-240, 2-(2-(dimethylamino)-6-ethyl-7-(4-(4-hydroxy-2-methoxy-5-methylnicotinoyl)piperazin-1-yl)-8-oxopyrido[2,3-b]pyrazin-5(8H)-yl)-N-(3-(trifluoromethyl)bicyclo[1.1.1]pentan-1-yl)acetamide]

EC50 [1]: > 5000 nM
IC50 [2]: 100 to 500 nM
Structure (SMILES): CCc1c(N2CCN(C(=O)c3c(O)ccc4ncoc34)CC2)c(=O)n2nc(-c3ccnc(OC)c3)nc2n1CC(=O)NC12CC(OC)(C1)C2 [I-241, 2-(5-ethyl-6-(4-(6-hydroxybenzo[d]oxazole-7-carbonyl)piperazin-1-yl)-2-(2-methoxypyridin-4-yl)-7-oxo-[1,2,4]triazolo[1,5-a]pyrimidin-4(7H)-yl)-N-(3-methoxybicyclo[1.1.1]pentan-1-yl)acetamide]

EC50 [1]: > 5000 nM
IC50 [2]: 100 to 500 nM
Structure (SMILES): CCc1c(N2CCN(C(=O)c3ncnc(C)c3O)CC2)c(=O)n2nc(-c3ccnc(OC)c3)nc2n1CC(=O)N[C@H]1CC[C@H](C(F)(F)F)CC1 [I-242, 2-(5-ethyl-6-(4-(5-hydroxy-6-methylpyrimidine-4-carbonyl)piperazin-1-yl)-2-(2-methoxypyridin-4-yl)-7-oxo-[1,2,4]triazolo[1,5-a]pyrimidin-4(7H)-yl)-N-((1r,4r)-4-(trifluoromethyl)cyclohexyl)acetamide]

EC50 [1]: 2000 to 5000 nM
IC50 [2]: 100 to 500 nM
Structure (SMILES): CCc1c(N2CCN(C(=O)c3ncnc(C)c3O)[C@H]3CC[C@@H]32)c(=O)c2c(nnn2C2CC2)n1CC(=O)NC12CC(C3CC3)(C1)C2 [I-245, 2-(1-cyclopropyl-5-ethyl-6-((1S,6S)-5-(5-hydroxy-6-methylpyrimidine-4-carbonyl)-2,5-diazabicyclo[4.2.0]octan-2-yl)-7-oxo-1,7-dihydro-4H-[1,2,3]triazolo[4,5-b]pyridin-4-yl)-N-(3-cyclopropylbicyclo[1.1.1]pentan-1-yl)acetamide]

Source: patent US20250206738A1, “WRN INHIBITORS” (Nimbus Wadjet, Inc., priority 2023, published 2025)
